Here are results for 59 compounds from PubChem BioAssay AID2765 (Broad Institute, 2010).

Activity calls are given as the source filed them.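 How the source made its calls: active means half-maximal concentration for the rise in caspase light signal at or below ten times the top tested dose; inconclusive means flat fit between 30% and 70% activity, or unreliable curve fit; inactive means the rest.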 A value given as a limit tells only on which side of the number the result lay.

The subject of the assay is MEF A1-2A-BIM cells, caspase 3/7 luminescence, 3 h. In words: caspase activation in A1-2A-BIM MEF cells, dose response, A1 inhibitor project, cell-based, luminescence, retest (AID 2765).

The EC50 is the concentration at which the effect is half-maximal.

`CC1CCCN(C(=O)CN2C(=O)C(C)Oc3ccccc32)C1` (centres undefined): the EC50 is > 35 µM (inactive). The same measure for `Oc1cc2c(cc1CN1CCN(c3ncccn3)CC1)OCO2`: > 35 µM (inactive); for `C[C@@]12C(=O)OC(=O)[C@]1(C)C1CCC2O1`: > 35 µM (inactive); for `O=C(CSc1nccc(=O)[nH]1)Nc1ccccc1Sc1ccccc1`: > 35 µM (inactive). The same measure for `O=C(CSc1ccc2ccccc2c1)NCCc1ccc(O)c(O)c1`: > 35 µM (inactive); for `O=C(NCc1cccnc1)[C@@H]1CC=C[C@@H]2CCN(Cc3ccccc3)C(=O)[C@@H]21`: > 35 µM (inactive). The same measure for `CCc1nnc(NC(=O)c2ccc(NC(=O)C(C)C)cc2)s1`: > 35 µM (inactive). Take `COC(=O)[C@@]1(C)CC[C@]2(C)CC[C@@]3(C)C(=CC(=O)C4[C@@]5(C)CC[C@H](O)C(C)(C)[C@@H]5CC[C@]43C)[C@H]2C1` (some centres undefined): the EC50 is > 35 µM (inactive). To `CC(=O)Nc1ccc(NC(=O)C(C)OC(=O)/C=C/c2cn(-c3ccccc3)nc2-c2cccnc2)cc1` (centres undefined) belongs 17.1 µM; to `CC1=NNC(=O)/C1=C\c1cn(-c2ccccc2)nc1-c1cccs1`, 15.1 µM; to `O=C(Cc1cccc([N+](=O)[O-])c1)Nc1cccc(C(=O)N2CCOCC2)c1`, > 35 µM (inactive). The same measure for `COc1ccc(OC[C@@H](O)CNC(=O)c2cccc3c2C(=O)c2ccc(-c4ccc(F)cc4OCc4ccccc4)cc2S3(=O)=O)cc1`: > 35 µM (inactive); for `O=C(CCS(=O)(=O)c1ccccc1)N(CCCN1CCOCC1)c1nc2ccc(F)cc2s1`: > 35 µM (inactive). The same measure for `O=c1c(Cl)c(Cl)cnn1Cc1ccccc1Cl`: > 35 µM (inactive); for `CCOC(=O)[C@H]1[C@H]2COc3cc(OC)ccc3[C@@H]2N2C(=O)c3ccc(C)cc3NC(=O)[C@@]12C`: > 35 µM (inactive); for `CC(=O)Nc1ccc(SCCN2CC[C@@H](C(C)(C)C)CCC2=O)cc1`: > 35 µM (inactive). As to `CCSc1nc(NCCN(C)C)c2c3c(sc2n1)COC(C)(CC)C3` (centres undefined), the EC50 is > 35 µM (inactive). To `O=C(Cn1c(C(F)(F)F)nc2ccccc21)N=Nc1c(O)[nH]c2ccc(Br)cc12` belongs 27.4 µM; to `Cc1cc(N2CCN(c3ccccc3)CC2)nc(-c2ccccc2)n1`, > 35 µM (inactive); to `CCc1noc(C)c1C(=O)N(CC)CC(=O)NCc1ccc(Cl)cc1`, > 35 µM (inactive).

On to `Cc1cc(C)n(-c2ccc(NC(=O)C3CCN(Cc4ccc(C)o4)CC3)cc2)n1`, for which the EC50 is > 35 µM (inactive).

`COc1cc(C(=O)Nc2cc3c(cc2N2CCCCC2)n(C)c(=O)n3C)cc(OC)c1OC`: the EC50 was > 35 µM (inactive). Consider `Cc1ccc(C)c(NC(=O)CN(C)C(=O)c2ccc(-c3cccc(C(F)(F)F)c3)o2)c1`, for which the EC50 is > 35 µM (inactive).

Take `COc1ccc(OC)c(NC(=O)CSc2nnc(CNC(=O)COc3ccc(Cl)cc3)o2)c1`: the EC50 was > 35 µM (inactive). Take `CCOc1ccc(NC(=O)CSc2nnc(Cc3cccn3C)n2-c2ccc(F)cc2)cc1`: the EC50 was > 35 µM (inactive). On to `CCCc1cc(=O)oc2c(C)c(OCC(=O)Nc3ccc(CN4CCOCC4)cc3)ccc12`, for which the EC50 was > 35 µM (inactive). To `COc1ccc(C(=O)/C=C/C(=O)N(CC(=O)NC2CCCCC2)Cc2cccs2)c(O)c1` belongs > 35 µM (inactive); to `Cc1cc(NC(=O)COC(=O)C(Cc2ccccc2)NC(=O)c2ccco2)no1` (centres undefined), > 35 µM (inactive). The same measure for `CC(=O)Nc1ccc(SC[C@H](Cc2ccccc2)N2CC[C@@H](C(C)(C)C)CCC2=O)cc1`: > 35 µM (inactive).

As for `Cc1cccc(C)c1NC(=O)CS(=O)CC(=O)N1CCN(c2ccccc2)CC1` (centres undefined), the EC50 is > 35 µM (inactive). To `O=C(CSc1nc2ncc(Br)cc2[nH]1)c1ccc([N+](=O)[O-])cc1` belongs > 35 µM (inactive); to `CCOC(=O)CCCCCNC(=O)c1ccc(F)cc1F`, > 35 µM (inactive); to `C=C1CCc2c([nH]c3ccc(OCC(C)C)cc23)C1=O`, 15.1 µM. As to `CN(C)C/C=C(\c1ccc(Br)cc1)c1cccnc1`, the EC50 was > 35 µM (inactive).

`CCOc1ccccc1CNC(=O)Cn1nc(C)c2c(C)n(-c3ccc(C)cc3)nc2c1=O`: the EC50 was > 35 µM (inactive). To `O=C(/C=C/c1ccc(Cl)cc1)c1ccc([N+](=O)[O-])o1` belongs > 35 µM (inactive). Regarding `CC(C)CC(NC(=O)c1ccc(Cl)cc1)C(=O)OCC(=O)c1ccc2c(c1)NC(=O)CO2` (centres undefined), the EC50 is 5.35 µM.

For the compound `COc1ccccc1CN1CC(C(=O)NCCN2CCNC2=O)CCC1=O` (centres undefined), the EC50 was > 35 µM (inactive).

Turning to `O=C(Nc1ccccc1N1CCCCC1)c1ccc(Cl)cc1`, the EC50 is > 35 µM (inactive). For `NS(=O)(=O)c1ccc(NC(=O)c2ccc3c(c2)CCCC3)cc1`, the EC50 was > 35 µM (inactive). To `CCOC(=O)CN(Cc1ccccc1)C(=O)OC(C)(C)C` belongs > 35 µM (inactive); to `O=C(CNc1cccc(S(=O)(=O)N2CCCC2)c1)Nc1cccc(C(F)(F)F)c1`, > 35 µM (inactive). The same measure for `Cc1ccsc1CNC1CCCCC1`: > 35 µM (inactive). To `Cc1cccc(C)c1NC(=O)c1cnccn1` belongs > 35 µM (inactive). Take `COc1ccccc1-c1cc(C(F)(F)F)nc(S(=O)(=O)CCCC(=O)N2CCOCC2)n1`: the 50% effective concentration (EC50) was 28.7 µM. To `O=C(NCc1ccccc1Br)c1cccc2c1C(=O)c1ccc(-c3ccc(OC(F)(F)F)cc3)cc1S2(=O)=O` belongs > 35 µM (inactive). On to `COc1cc(OC)cc(C(=O)N[C@H](C(=O)OCC(=O)Nc2ccc(C)cc2C)C(C)C)c1`, for which the EC50 is > 35 µM (inactive).

Consider `Cc1cc(/C=C(/C#N)C(=O)O)c(C)n1-c1cccc2ccccc12`, for which the EC50 was > 35 µM (inactive). The same measure for `COc1ccc(C(=O)Nc2cccc3c2CCCC3)cc1`: > 35 µM (inactive).

As for `CCn1c(C)[n+](CCOC(C)=O)c2cc(Cl)c(Cl)cc21`, the EC50 is > 35 µM (inactive). To `CS(=O)(=O)Nc1ccc(C2=NN(S(C)(=O)=O)C(c3ccccc3)C2)cc1` (centres undefined) belongs > 35 µM (inactive). The same measure for `Cc1occc1-c1nnc(-c2cc([N+](=O)[O-])cc([N+](=O)[O-])c2)o1`: > 35 µM (inactive); for `N#Cc1cccnc1N1CCN(C(=O)c2cccc3c2C(=O)c2ccc(-c4ccc(Cl)c(C(F)(F)F)c4)cc2S3(=O)=O)CC1`: > 35 µM (inactive); for `CC(C)CCN(C(=O)Cc1ccc(Cl)c(Cl)c1)c1c(N)n(Cc2ccccc2)c(=O)[nH]c1=O`: 12 µM. To `COC(=O)C(Cc1ccccc1)OS(N)(=O)=O` (centres undefined) belongs > 35 µM (inactive); to `O=C(NCC1CCCO1)C1CCN(S(=O)(=O)c2ccc(Br)cc2)CC1` (centres undefined), > 35 µM (inactive); to `Cc1ccc(NC(=O)c2cccc(S(=O)(=O)NCc3ccccc3)c2)nc1`, > 35 µM (inactive). For the compound `COC(=O)Cc1csc(/N=C/c2c(O)n(-c3cccc(C(F)(F)F)c3)c(=O)c3ccccc23)n1`, the EC50 is 5.7 µM. As to `O=C(CN1C(=O)NC2(CCCCCC2)C1=O)Nc1cccc(F)c1`, the EC50 was > 35 µM (inactive).
